Measurements from patent publication EP0542497A1, “Heterocyclic compounds” (THE WELLCOME FOUNDATION LIMITED, priority 1991, dated 1993).
pEC50, pIC50, pKi: −log10 of the molar value. Where two headings read alike, the source gives them in different places.

Legend:
[1] = target: T1, DHFR (Candida albicans, UniProt P22906); assay: biochemical
T1 sequence (P22906 1-192): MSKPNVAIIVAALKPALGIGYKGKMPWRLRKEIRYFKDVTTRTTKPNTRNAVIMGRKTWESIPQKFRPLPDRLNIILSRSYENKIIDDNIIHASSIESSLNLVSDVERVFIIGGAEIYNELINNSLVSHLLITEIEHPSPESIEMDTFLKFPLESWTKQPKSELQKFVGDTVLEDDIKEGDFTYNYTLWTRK

[2] = target: T2, human dihydrofolate reductase (Homo sapiens, UniProt P00374); assay: DHFR I50, human enzyme; assay type: biochemical
T2 sequence (P00374 1-187): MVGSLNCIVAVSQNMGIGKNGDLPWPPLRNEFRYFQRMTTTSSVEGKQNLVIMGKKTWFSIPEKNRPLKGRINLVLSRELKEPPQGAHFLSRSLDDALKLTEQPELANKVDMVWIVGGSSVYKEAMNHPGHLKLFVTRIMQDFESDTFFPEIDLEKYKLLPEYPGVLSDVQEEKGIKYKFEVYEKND

[3] = target: T2, human dihydrofolate reductase; assay: Enzyme binding affinity (Ki) for human dihydrofolate reductase, Henderson equation; assay type: biochemical; details: 50mM Sorenson's phosphate buffer, pH 7, 45µM dihydrofolate, 65µM NADPH
[4] = system: CCRF-CEM T cells; assay: Cytotoxicity in cell culture (inhibition of cell growth); assay type: cell-based; details: human line, continuous exposure 72 hours
Procedure: (§1) The cytotoxic effects of various compounds were measured by the inhibition of mammalian cell growth in culture. Cell lines were grown in RPMI-1640 media prepared without folic acid but supplemented with 10nM calcium leucovorin, 25mM HEPES and 10% dialysed fetal bovine serum. In the case of human medulloblastoma cells (Daoy), the media (containing undialysed 10% fetal bovine serum) was pretreated with the enzyme thymidine phosphorylase (20 units/ml for 30 mins. at 37°C) to remove endogenous thymidine. Cells were seeded into 96 well microtiter plates (at densities determined to give log phase growth of control cells at the end of the assay) in 150µl of medium and grown at 37°C in a humidified incubator at 6% CO₂ for 24 hours. Compounds were prepared in media at four times the highest concentration to be tested; two-fold serial dilutions were made, and compounds were added to cells. […] The EC₅₀, defined as the concentration of compound required to reduce growth to 50% of the control, was determined from a plot of per cent inhibition versus log concentration. Cells were continuously exposed to inhibitor for 72 hours.

[5] = system: D98 bone marrow cells; assay: as above; assay type: cell-based; details: human line, continuous exposure 72 hours
Procedure: as §1

[6] = system: Daoy medulloblastoma; assay: as above; assay type: cell-based; details: human line, continuous exposure 72 hours, medium pretreated with thymidine phosphorylase
Procedure: as §1

[7] = system: Ehrlich ascites carcinoma; assay: as above; assay type: cell-based; details: mouse line, continuous exposure 72 hours
Procedure: as §1

[8] = system: GC3C1 colon carcinoma; assay: as above; assay type: cell-based; details: GC3/C1, human line, continuous exposure 72 hours
Procedure: as §1

[9] = system: HCT8 colon adenocarcinoma; assay: as above; assay type: cell-based; details: HCT-8, human line, continuous exposure 72 hours
Procedure: as §1

[10] = system: KB3-1 epidermoid carcinoma; assay: as above; assay type: cell-based; details: KB 3-1, human line, continuous exposure 72 hours
Procedure: as §1

[11] = system: L cells (derived from connective tissue); assay: as above; assay type: cell-based; details: mouse line, continuous exposure 72 hours
Procedure: as §1

[12] = system: MCF7 breast adenocarcinoma; assay: as above; assay type: cell-based; details: human line, continuous exposure 72 hours
Procedure: as §1

[13] = system: P388 lymphoid neoplasm; assay: as above; assay type: cell-based; details: mouse line, continuous exposure 72 hours
Procedure: as §1

[14] = system: S180 sarcoma; assay: as above; assay type: cell-based; details: S-180, mouse line, continuous exposure 72 hours
Procedure: as §1

[15] = system: Sal. Typhosa CN512; assay: Minimum inhibitory concentration vs microorganisms; assay type: cell-based; details: Wellcotest broth plus 7% lysed horse blood, 18 hours, 37°C
[16] = Brain distribution in mice (brain and plasma concentrations by HPLC); assay type: in vivo; details: female CD1 mice, 30 or 40 minutes after dose; Compound 1 17mg/kg i.v., Compound 2 10mg/kg i.v., piritrexim 200mg/kg i.p., trimetrexate 100mg/kg i.p.; average of several experiments
Procedure: Female CD1 mice were dosed with Compound 1 (17mg/kg, i.v.), Compound 2 (10mg/kg, i.v.), piritrexim (200mg/kg,i.p.) or trimetrexate (100mg/kg, i.p.). Brain and plasma samples were collected 30 or 40 minutes later. The drugs were extracted from the samples, and their concentrations were determined using HPLC. The numbers represent the average of several experiments.

[17] = system: Str. Pyogenes CN10; assay: Minimum inhibitory concentration vs microorganisms; details: Wellcotest broth plus 7% lysed horse blood, 18 hours, 37°C
Description: (§2) The culture medium used in the test was Wellcotest broth to which lysed horse blood had been added at a final concentration of 7%. The assay was semi-automated employing 96-well Microtiter plates, and growth was monitored visually.

[18] = system: Str. Faecalis CN478; assay: Minimum inhibitory concentration vs microorganisms; details: Wellcotest broth plus 7% lysed horse blood, 18 hours, 37°C
Description: as §2

[19] = system: Str. Agalactiae CN1143; assay: Minimum inhibitory concentration vs microorganisms; details: Wellcotest broth plus 7% lysed horse blood, 18 hours, 37°C
Description: as §2

[20] = system: Staph. Aureus CN491; assay: Minimum inhibitory concentration vs microorganisms; details: Wellcotest broth plus 7% lysed horse blood, 18 hours, 37°C
Description: as §2

[21] = system: Bord. Bronchisep-tica CN385; assay: Minimum inhibitory concentration vs microorganisms; details: Bord. Bronchiseptica CN385; Wellcotest broth plus 7% lysed horse blood, 18 hours, 37°C
Description: as §2

[22] = system: Past. Multocida ATCC6587; assay: Minimum inhibitory concentration vs microorganisms; details: Wellcotest broth plus 7% lysed horse blood, 18 hours, 37°C
Description: as §2

[23] = system: Candida Albicans CN1863; assay: Minimum inhibitory concentration vs microorganisms; details: Wellcotest broth plus 7% lysed horse blood, 18 hours, 37°C
Description: as §2

[24] = system: Myco. Smegmatis S3254; assay: Minimum inhibitory concentration vs microorganisms; details: Wellcotest broth plus 7% lysed horse blood, 18 hours, 37°C
Description: as §2

[25] = system: Sal. Typhimurium S8587; assay: Minimum inhibitory concentration vs microorganisms; details: Wellcotest broth plus 7% lysed horse blood, 18 hours, 37°C
Description: as §2

[26] = system: Shig. Flexneri CN6007; assay: Minimum inhibitory concentration vs microorganisms; details: Wellcotest broth plus 7% lysed horse blood, 18 hours, 37°C
Description: as §2

[27] = system: Mycobacterium avium complex (MAC); assay: In vitro activity vs Mycobacterium avium complex, radiometric respirometry (BACTEC); assay type: cell-based; details: seven (7) clinical isolates of Myco. avium
[28] = system: Vibrio Cholerae ATCC14035; assay: Minimum inhibitory concentration vs microorganisms; details: Wellcotest broth plus 7% lysed horse blood, 18 hours, 37°C
Description: as §2

[29] = C.albicans enzyme, read-out: DHFR I50 C.albicans

| Compound | pIC50 [1, 29] | pIC50 [2] | pEC50 [4] | pEC50 [5] | pEC50 [6] | pEC50 [7] | pEC50 [8] | pEC50 [9] | pEC50 [10] | pEC50 [11] | pEC50 [12] | pEC50 [13] | pEC50 [14] | M I C [15] [µg/mL] | Tissue concentration brain [16] [µg/g] | Tissue concentration plasma [16] [µg/mL] | M I C [17] | M I C [18] | M I C [19] | M I C [20] [µg/mL] | other results |
| --- | --- | --- | --- | --- | --- | --- | --- | --- | --- | --- | --- | --- | --- | --- | --- | --- | --- | --- | --- | --- | --- |
| CCC(CC)n1ccc2c3c(N)nc(N)nc3ccc21 [Compound 1, 1,3-Diamino-7-(1-ethylpropyl)-7H-pyrrolo(3,2-f)quinazoline] | 8.35 | > 9.00 | 9.15 | 7.35 | 8.08 | 8.72 | 8.46 | 8.92 | 7.15 | 8.66 | 7.42 | 8.57 | 8.32 | 0.1 | 5.0 | 0.70 | 0.1 µg/mL | 0.1 µg/mL | 0.1 µg/mL | 0.1 | pKi [3]: 10.72; M I C [21]: 0.1 µg/mL; M I C [22]: 0.1 µg/mL; M I C [23]: 0.3 µg/mL; M I C [24]: 0.1 µg/mL; M I C [25]: 0.1 µg/mL; M I C [26]: 0.1 µg/mL |
| CCC(CC)n1c(C)cc2c3c(N)nc(N)nc3ccc21 [Compound 2, 1,3-Diamino-7-(1-ethylpropyl)-8-methyl-7H-pyrrolo(3,2-f)quinazoline] | – | > 9.00 | > 9.00 | 7.92 | 9.40 | – | 9.10 | 9.52 | 7.89 | 9.15 | 9.05 | 9.52 | – | 0.1 | 2.4 | 0.36 | .0001 µg/mL | .0001 µg/mL | .0001 µg/mL | 0.01 | pIC50 [1]: > 9.00; pKi [3]: 11.85; inhibition at 1 µg/mL ([27]; 1µg/ml, read-out: range of growth inhibition): 69 to 97%; inhibition at 5 µg/mL ([27]; 5µg/ml, read-out: range of growth inhibition): 97 to 99%; M I C ([27]; roughly translated from growth inhibition, read-out: average MIC): ~1.6 µg/mL; M I C [21]: 0.003 µg/mL; M I C [28]: .0001 µg/mL; M I C [22]: .0001 µg/mL; M I C [23]: 0.03 µg/mL; M I C [24]: 0.001 µg/mL; M I C [25]: 0.003 µg/mL; M I C [26]: 0.003 µg/mL |
| CCc1cc2c3c(N)nc(N)nc3ccc2n1C(C)CC (stereo not drawn) [Compound 9e, 1,3-diamino-8-ethyl-7-sec-butyl-7H-pyrrolo(3,2-f)quinazoline] | > 9.00 | > 9.00 | – | – | – | – | – | – | – | – | – | – | – | – | – | – | – | – | – | – | – |
| CCC(CC)n1c(CCCCl)cc2c3c(N)nc(N)nc3ccc21 [Compound 9f, 1,3-diamino-8-(3-chloropropyl)-7-(1-ethylpropyl)-7H-pyrrolo(3,2-f)quinazoline] | 8.37 | > 9.00 | – | – | – | – | – | – | – | – | – | – | – | – | – | – | – | – | – | – | – |
| CCC(C)(C)n1c(C)cc2c3c(N)nc(N)nc3ccc21 [Compound 10b, 1,3-diamino-7-(1,1-dimethylpropyl)-8-methyl-7H-pyrrolo(3,2-f)quinazoline] | > 9.00 | > 9.00 | – | – | – | – | – | – | – | – | – | – | – | – | – | – | – | – | – | – | – |
| CN(Cc1cnc2nc(N)nc(N)c2n1)c1ccc(C(=O)N[C@@H](CCC(=O)O)C(=O)O)cc1 [Methotrexate, N-[4[[(2,4-diamino-6-pteridinyl)methyl]methylamino]benzoyl]-L-glutamic acid, reference compound] | – | – | 8.72 | 7.33 | 7.68 | 8.07 | 7.92 | 8.14 | 7.70 | 7.12 | 7.92 | 8.57 | 7.73 | – | – | – | – | – | – | – | – |
| COc1ccc(OC)c(Cc2cnc3nc(N)nc(N)c3c2C)c1 [Piritrexim, 2,4-diamino-6(2,5-dimethoxybenzyl)5-methylpyrido(2,3-d)pyrimidine, reference compound] | – | – | 7.82 | 6.71 | 7.32 | 8.40 | 8.12 | 8.89 | 6.47 | 8.28 | 6.76 | 7.64 | 8.00 | – | 2.3 | 4.2 | – | – | – | – | – |
| COc1cc(Cc2cnc(N)nc2N)cc(OC)c1OC [Trimethoprim, 2,4-diamino-5-(3,4,5-trimethoxybenzyl)pyrimidine, reference compound] | – | – | – | – | – | – | – | – | – | – | – | – | – | 0.1 | – | – | 0.1 µg/mL | 0.1 µg/mL | 0.1 µg/mL | 0.1 | M I C [28]: 0.3 µg/mL; M I C [22]: 0.1 µg/mL; M I C [23]: >100 µg/mL; M I C [24]: 0.3 µg/mL; M I C [25]: 0.1 µg/mL; M I C [26]: 0.1 µg/mL |
| COc1cc(NCc2ccc3nc(N)nc(N)c3c2C)cc(OC)c1OC [Trimetrexate, 5-methyl-6-[[(3,4,5-trimethoxyphenyl)amino]methyl]-2,4-quinazolinediamine, reference compound] | – | – | – | – | – | – | – | – | – | – | – | – | – | – | 1.4 | 13 | – | – | – | – | – |
